Data as given in patent US8952024B2, “Herbicidal pyrimidone derivatives” (E I du Pont de Nemours and Company, priority 2009, dated 2015).

Legend:
Experiment in all cases: Test B pre-/postemergence plant response
Assay type in all cases: in vivo
[1] = tested on: ragweed (common ragweed, Ambrosia elatior); conditions: for Plant response rating, Ragweed: Postemergence, scale 0 to 100 (0 no effect, 100 complete control)
Description: (§1) Seeds of plant species selected from blackgrass (Alopecurus myosuroides), downy bromegrass (Bromus tectorum), green foxtail (Setaria viridis), Italian ryegrass (Lolium multiflorum), wheat (Triticum aestivum), wild oat (Avena fatua), deadnettle (henbit deadnettle, Lamium amplexicaule), galium (catchweed bedstraw, Galium aparine), bermudagrass (Cynodon dactylon), Surinam grass (Brachiaria decumbens), cocklebur (Xanthium strumarium), corn (Zea mays), large crabgrass (Digitaria sanguinalis), woolly cupgrass (Eriochloa villosa), giant foxtail (Setaria faberii), goosegrass (Eleusine indica), johnsongrass (Sorghum halepense), kochia (Kochia scoparia), lambsquarters (Chenopodium album), morningglory (Ipomoea coccinea), nightshade (eastern black nightshade, Solanum ptycanthum), yellow nutsedge (Cyperus esculentus), pigweed (Amaranthus retroflexus), ragweed (common ragweed, Ambrosia elatior), Russian thistle (Salsola kali), soybean (Glycine max), sunflower (common oilseed sunflower, Helianthus annuus) and velvetleaf (Abutilon theophrasti) were planted into a blend of loam soil and sand and treated preemergence with test compounds formulated in a non-phytotoxic solvent mixture which included a surfactant.
(§2) At the same time, plants selected from these crop and weed species and also winter barley (Hordeum vulgare), canarygrass (Phalaris minor), chickweed (Stellaria media) and windgrass (Apera spica-venti) were planted in pots containing Redi-Earth® planting medium (Scotts Company, 14111 Scottslawn Road, Marysville, Ohio 43041) comprising spaghnum peat moss, vermiculite, wetting agent and starter nutrients and treated with postemergence applications of some of the test chemicals formulated in the same manner. Plants ranged in height from 2 to 18 cm (1- to 4-leaf stage) for postemergence treatments.
(§3) Treated plants and controls were maintained in a greenhouse for 13 to 15 days, after which time all treated plants were visually evaluated and compared to controls. Plant response ratings, summarized in Table B, are based on a scale of 0 to 100 where 0 is no effect and 100 is complete control. A dash (-) response means no test result.

[2] = tested on: downy bromegrass (Bromus tectorum)
Description: as §1, §2, §3

[3] = tested on: blackgrass (Alopecurus myosuroides)
Description: as §1, §2, §3

[4] = tested on: giant foxtail (Setaria faberii)
Description: as §1, §2, §3

corn (Zea mays) = conditions: for Plant response rating, Corn: Postemergence, scale 0 to 100 (0 no effect, 100 complete control)
Description: as §1, §2, §3

[5] = tested on: johnsongrass (Sorghum halepense)
Description: as §1, §2, §3

[6] = tested on: Surinam grass (Brachiaria decumbens); conditions: for Plant response rating, Surinam Grass: Postemergence, scale 0 to 100 (0 no effect, 100 complete control)
Description: as §1, §2, §3

[7] = tested on: velvetleaf (Abutilon theophrasti); conditions: for Plant response rating, Velvetleaf: Postemergence, scale 0 to 100 (0 no effect, 100 complete control)
Description: as §1, §2, §3

soybean (Glycine max) = conditions: for Plant response rating, Soybean: Postemergence, scale 0 to 100 (0 no effect, 100 complete control)
Description: as §1, §2, §3

[8] = tested on: woolly cupgrass (Eriochloa villosa)
Description: as §1, §2, §3

[9] = tested on: pigweed (Amaranthus retroflexus)
Description: as §1, §2, §3

[10] = tested on: Italian ryegrass (Lolium multiflorum); conditions: for Plant response rating, Ryegrass, Italian: Postemergence, scale 0 to 100 (0 no effect, 100 complete control)
Description: as §1, §2, §3

kochia (Kochia scoparia) = tested on: kochia (Kochia scoparia)
Description: as §1, §2, §3

[11] = 62 g ai/ha, postemergence, 0 is no effect, 100 is complete control, 13 to 15 days
[12] = 31 g ai/ha, postemergence, scale 0 to 100, 0 is no effect, 100 is complete control
[13] = Postemergence, 125 g ai/ha, scale 0 to 100 (0 no effect, 100 complete control)
[14] = Postemergence, 250 g ai/ha, scale 0 to 100 (0 no effect, 100 complete control)

SMILES: CCCn1c(-c2ccc(F)cc2)ncc(C(=O)C2=C(O)CCCC2=O)c1=O [Compound 102]
- Ragweed plant response rating (0 to 100 scale) [1, 11]: 80
- Plant response rating, Ragweed ([1]; 125 g ai/ha): 85
- Plant response rating, Ragweed ([1]; 250 g ai/ha): 95
- Plant response rating, Bromegrass, Downy [2, 12]: 0
- Bromegrass, Downy plant response rating (0 to 100 scale) [2, 11]: 10
- Plant response rating, Bromegrass, Downy [2, 13]: 10
- Plant response rating, Bromegrass, Downy [2, 14]: 30
- Plant response rating, Blackgrass [3, 12]: 0
- Blackgrass plant response rating (0 to 100 scale) [3, 11]: 5
- Plant response rating, Blackgrass [3, 13]: 30
- Plant response rating, Blackgrass [3, 14]: 45
- Plant response rating, Foxtail, Giant [4, 12]: 70
- Foxtail, Giant plant response rating (0 to 100 scale) [4, 11]: 75
- Plant response rating, Foxtail, Giant [4, 13]: 80
- Plant response rating, Foxtail, Giant [4, 14]: 95
- Corn plant response rating (0 to 100 scale) (corn (Zea mays); [11]): 15
- Plant response rating, Corn (corn (Zea mays); 125 g ai/ha): 65
- Plant response rating, Corn (corn (Zea mays); 250 g ai/ha): 70
- Plant response rating, Johnsongrass [5, 12]: 20
- Johnsongrass plant response rating (0 to 100 scale) [5, 11]: 25
- Plant response rating, Johnsongrass [5, 13]: 60
- Plant response rating, Johnsongrass [5, 14]: 75
- Surinam Grass plant response rating (0 to 100 scale) [6, 11]: 75
- Plant response rating, Surinam Grass ([6]; 125 g ai/ha): 75
- Plant response rating, Surinam Grass ([6]; 250 g ai/ha): 85
- Velvetleaf plant response rating (0 to 100 scale) [7, 11]: 100
- Plant response rating, Velvetleaf ([7]; 125 g ai/ha): 100
- Plant response rating, Velvetleaf ([7]; 250 g ai/ha): 100
- Soybean plant response rating (0 to 100 scale) (soybean (Glycine max); [11]): 85
- Plant response rating, Soybean (soybean (Glycine max); 125 g ai/ha): 95
- Plant response rating, Soybean (soybean (Glycine max); 250 g ai/ha): 100
- Plant response rating, Cupgrass, Woolly [8, 12]: 70
- Cupgrass, Woolly plant response rating (0 to 100 scale) [8, 11]: 75
- Plant response rating, Cupgrass, Woolly [8, 13]: 75
- Plant response rating, Cupgrass, Woolly [8, 14]: 85
- Plant response rating, Pigweed [9, 12]: 70
- Pigweed plant response rating (0 to 100 scale) [9, 11]: 70
- Plant response rating, Pigweed [9, 13]: 95
- Plant response rating, Pigweed [9, 14]: 98
- Ryegrass, Italian plant response rating (0 to 100 scale) [10, 11]: 0
- Plant response rating, Ryegrass, Italian ([10]; 125 g ai/ha): 5
- Plant response rating, Ryegrass, Italian ([10]; 250 g ai/ha): 10
- Plant response rating, Kochia (kochia (Kochia scoparia); [12]): 65
- Kochia plant response rating (0 to 100 scale) (kochia (Kochia scoparia); [11]): 70
- Plant response rating, Kochia (kochia (Kochia scoparia); [13]): 100
- Plant response rating, Kochia (kochia (Kochia scoparia); [14]): 100
